Data published in article PMC8000041, “New Insights into the Metabolism of the Flavanones Eriocitrin and Hesperidin: A Comparative Human Pharmacokinetic Study” (Antioxidants, 2021).
Like-named read-outs stand apart in the source and are kept apart here.

Columns and labels:
[1] = Urinary excretion of flavanone-derived metabolites after single intake of lemon or orange extract (UPLC-ESI-QTOF-MS); assay type: in vivo, human; conditions: for Urinary excretion F1: urine fraction 0-4 h; for Urinary excretion F1 / Urinary excretion Total F / Urinary excretion F2 / Urinary excretion F3 / Urinary excretion F4: mean ± SD; for Urinary excretion Total F: sum of fractions F1-F4 (24 h); for Urinary excretion F2: urine fraction 4-8 h; for Urinary excretion F3: urine fraction 8-10 h; for Urinary excretion F4: urine fraction 10-24 h; for Occurrence Urine LE (number of volunteers in whom the metabolite was detected): after consuming lemon extract; for Occurrence Urine LE (number of volunteers in whom the metabolite was detected) / Occurrence Urine OE (number of volunteers in whom the metabolite was detected): n = 16 volunteers; for Occurrence Urine OE (number of volunteers in whom the metabolite was detected): after consuming orange extract
Text: Secondary endpoints involved the evaluation of post-prandial changes in several biomarkers dealing with metabolism, inflammation, and oxidative stress after a high-fat-high-sugars meal. The design was a randomized pharmacokinetic, double-blind, crossover, single-dose trial consisted of 2 test-phases. The volunteers were randomly allocated into two groups using a computerized random number list. Each group consumed one of the citrus extracts by following a test-phase that lasted for 1 day for blood sampling and urine collection, a 2-week washout period between each test phase, and crossover before consuming the other extract. The volunteers were instructed to avoid the consumption of flavanone-containing products, from a list provided by the researchers, for 1 week before the study and during the wash-out phase (citrus fruit juices, tomatoes, tomato-based sauces (like ‘ketchup’), peppers, almonds, etc.). […] The 3 capsules provided a total of 1.95 g orange extract, containing 260 mg hesperidin, and 3.1 g lemon extract, containing 260 mg eriocitrin. […] Untreated urine samples were aliquoted and frozen at −80 °C for up to 4 weeks until analyses, avoiding freeze-thaw cycles to avoid metabolites’ deconjugation. Moreover, three measurements of blood pressure and heart rate were taken before each time-point of blood withdrawal. […] A previously validated method for analyzing phenolic metabolites in biological samples, including flavanone-derived metabolites, was used. […] After centrifugation at 14,000× g for 10 min at 4 °C, the supernatant was evaporated in a speed vacuum concentrator. Finally, samples were re-suspended in 100 µL of methanol, filtered through a 0.22 µm cellulose filters before analysis by UPLC- ESI-QTOF-MS. […] A targeted screening strategy was applied to identify metabolites that could be present after consuming the citrus extracts. Twenty-eight possible compounds were browsed in all the samples. The list of compounds included the polyphenols present in the extracts, with particular focus on the flavanone rutinosides hesperidin and eriocitrin, their respective aglycones hesperetin, and eriodictyol, as well as their derived phase-II conjugates (glucuronides, sulfates, sulfoglucuronides, etc.). The exact mass of each proposed compound was extracted using an extraction window of 0.01 m/z. The metabolites hesperetin 7-O-glucuronide, hesperetin 3′-O-glucuronide, hesperetin 3-O-sulfate, naringenin 4′-O-glucuronide, and naringenin 7′-O-glucuronide were quantified with their corresponding standards. […] The parent phenolic compounds were quantified with their corresponding standards. In the case of some relevant conjugated metabolites, which standards were not available (eriodictyol and homoeriodictyol conjugates), their quantification was achieved by using relative response factors (RRFs) as previously described. Briefly, RRFs are useful to check the different responses of metabolites in the mass spectrometer vs. their UV signal. While the ionization response of free vs. conjugated forms is usually very different, their UV signal response is quite similar. To this purpose, we injected in a HPLC-DAD-ESI-Q (MS) the plasma samples (n = 5) with the highest concentrations of those conjugated metabolites. Concentrations were calculated by integrating the area from their corresponding UV peaks and compared with the UV peak area of a known concentration of their corresponding available parent compounds (eriodictyol and homoeriodictyol). The concentrations calculated were used to compare the MS response for each conjugated-aglycone pair.

[2] = Plasma metabolites and pharmacokinetics after single intake of lemon or orange extract (UPLC-ESI-QTOF-MS, non-compartmental analysis); assay type: in vivo, human; conditions: for Occurrence Plasma LE (number of volunteers in whom the metabolite was detected): after consuming lemon extract; for Occurrence Plasma LE (number of volunteers in whom the metabolite was detected) / Occurrence Plasma OE (number of volunteers in whom the metabolite was detected): n = 16 volunteers; for Occurrence Plasma OE (number of volunteers in whom the metabolite was detected): after consuming orange extract; for Tmax / Cmax / AUC(0-t): mean ± SD; for AUC(0-t): read-out: AUC0-t
Text: Secondary endpoints involved the evaluation of post-prandial changes in several biomarkers dealing with metabolism, inflammation, and oxidative stress after a high-fat-high-sugars meal. The design was a randomized pharmacokinetic, double-blind, crossover, single-dose trial consisted of 2 test-phases. The volunteers were randomly allocated into two groups using a computerized random number list. Each group consumed one of the citrus extracts by following a test-phase that lasted for 1 day for blood sampling and urine collection, a 2-week washout period between each test phase, and crossover before consuming the other extract. The volunteers were instructed to avoid the consumption of flavanone-containing products, from a list provided by the researchers, for 1 week before the study and during the wash-out phase (citrus fruit juices, tomatoes, tomato-based sauces (like ‘ketchup’), peppers, almonds, etc.). […] The 3 capsules provided a total of 1.95 g orange extract, containing 260 mg hesperidin, and 3.1 g lemon extract, containing 260 mg eriocitrin. […] Plasma samples were obtained by centrifugation of peripheral venous blood at 14,000× g for 15 min at 4 °C and immediately frozen at −80 °C. Glucose, total cholesterol, HDL-cholesterol, LDL-cholesterol, triglycerides, insulin, homeostatic model assessment insulin resistance (HOMA-IR), gamma-glutamyl transferase (GGT), and alanine aminotransferase (ALT) were determined as previously reported. […] A previously validated method for analyzing phenolic metabolites in biological samples, including flavanone-derived metabolites, was used. […] After centrifugation at 14,000× g for 10 min at 4 °C, the supernatant was evaporated in a speed vacuum concentrator. Finally, samples were re-suspended in 100 µL of methanol, filtered through a 0.22 µm cellulose filters before analysis by UPLC- ESI-QTOF-MS. A targeted screening strategy was applied to identify metabolites that could be present after consuming the citrus extracts. Twenty-eight possible compounds were browsed in all the samples. The list of compounds included the polyphenols present in the extracts, with particular focus on the flavanone rutinosides hesperidin and eriocitrin, their respective aglycones hesperetin, and eriodictyol, as well as their derived phase-II conjugates (glucuronides, sulfates, sulfoglucuronides, etc.). The exact mass of each proposed compound was extracted using an extraction window of 0.01 m/z. The metabolites hesperetin 7-O-glucuronide, hesperetin 3′-O-glucuronide, hesperetin 3-O-sulfate, naringenin 4′-O-glucuronide, and naringenin 7′-O-glucuronide were quantified with their corresponding standards. […] The parent phenolic compounds were quantified with their corresponding standards. In the case of some relevant conjugated metabolites, which standards were not available (eriodictyol and homoeriodictyol conjugates), their quantification was achieved by using relative response factors (RRFs) as previously described. Briefly, RRFs are useful to check the different responses of metabolites in the mass spectrometer vs. their UV signal. While the ionization response of free vs. conjugated forms is usually very different, their UV signal response is quite similar. To this purpose, we injected in a HPLC-DAD-ESI-Q (MS) the plasma samples (n = 5) with the highest concentrations of those conjugated metabolites. Concentrations were calculated by integrating the area from their corresponding UV peaks and compared with the UV peak area of a known concentration of their corresponding available parent compounds (eriodictyol and homoeriodictyol). The concentrations calculated were used to compare the MS response for each conjugated-aglycone pair. Statistical analyses were carried out using the SPSS Software, version 23.0 (SPSS Inc., Chicago, IL, USA). Data are expressed as mean ± SD. The empirical distribution of data with the normality assumption was tested with the Shapiro-Wilk test. […]

[3] = lemon extract (3.1 g, 260 mg eriocitrin)
[4] = human, oral, 3.1 g, after lemon extract
[5] = human, oral, 3.1 g, after lemon extract, read-out: Tmax
[6] = orange extract (1.95 g, 260 mg hesperidin)
[7] = human, oral, 1.95 g, after orange (hesperidin) extract

| Compound | Urinary excretion F1 [1, 3] | Urinary excretion Total F ([1]; lemon extract) | Urinary excretion F2 ([1]; lemon extract) | Urinary excretion F3 ([1]; lemon extract) | Urinary excretion F4 ([1]; lemon extract) | Urinary excretion Total F ([1]; orange extract) | Urinary excretion F2 ([1]; orange extract) | Urinary excretion F3 ([1]; orange extract) | Urinary excretion F4 ([1]; orange extract) | Occurrence Urine LE (number of volunteers in whom the metabolite was detected) [1] | Occurrence Urine OE (number of volunteers in whom the metabolite was detected) [1] | Occurrence Plasma LE (number of volunteers in whom the metabolite was detected) [2] | Occurrence Plasma OE (number of volunteers in whom the metabolite was detected) [2] | Tmax ([2]; after lemon extract) | Cmax [2, 4] | AUC(0-t) [2, 4] | Tmax [2, 5] | Urinary excretion F1 [1, 6] | other results |
| --- | --- | --- | --- | --- | --- | --- | --- | --- | --- | --- | --- | --- | --- | --- | --- | --- | --- | --- | --- |
| O=C1CC(c2ccc(O)c(O)c2)Oc2cc(OC3OC(C(=O)O)C(O)C(O)C3O)cc(O)c21 (stereo not drawn) [M1, Eriodictyol glucuronide-1] | 3.2 ± 5.9 µg/mg creatinine | 18.0 ± 28.4 µg/mg creatinine | 9.6 ± 15.5 µg/mg creatinine | 4.5 ± 6.2 µg/mg creatinine | 0.7 ± 0.7 µg/mg creatinine | 0.6 ± 0.4 µg/mg creatinine | 0.4 ± 0.3 µg/mg creatinine | 0.1 ± 0.1 µg/mg creatinine | 0.05 ± 0.05 µg/mg creatinine | 16 | 5 | 16 | 3 | 5.9 ± 2.4 h | 104 ± 85.8 nM | 0.283 ± 0.271 µM·h | 6 h | – | – |
| O=C1CC(c2ccc(O)c(OC3OC(C(=O)O)C(O)C(O)C3O)c2)Oc2cc(O)cc(O)c21 (stereo not drawn) [M2, Eriodictyol glucuronide-2] | 6.4 ± 11.0 µg/mg creatinine | 46.6 ± 53.6 µg/mg creatinine | 18.0 ± 17.2 µg/mg creatinine | 18.1 ± 19.7 µg/mg creatinine | 4.2 ± 5.7 µg/mg creatinine | 2.5 ± 4.9 µg/mg creatinine | 0.5 ± 0.8 µg/mg creatinine | 0.5 ± 0.6 µg/mg creatinine | 1.4 ± 3.4 µg/mg creatinine | 16 | 10 | 16 | 7 | 5.9 ± 2.4 h | 871 ± 868 nM | 3.22 ± 4.12 µM·h | 6 h | 0.1 ± 0.1 µg/mg creatinine | – |
| O=C1CC(c2ccc(O)cc2)Oc2cc(OC3OC(C(=O)O)C(O)C(O)C3O)cc(O)c21 (stereo not drawn) [M3, Naringenin 7-O-glucuronide] | 1.0 ± 0.7 µg/mg creatinine | 5.7 ± 6.9 µg/mg creatinine | 2.6 ± 4.0 µg/mg creatinine | 1.7 ± 1.9 µg/mg creatinine | 0.3 ± 0.3 µg/mg creatinine | 0.7 ± 1.5 µg/mg creatinine | 0.2 ± 0.6 µg/mg creatinine | 0.2 ± 0.2 µg/mg creatinine | 0.2 ± 0.3 µg/mg creatinine | 16 | 16 | 16 | 14 | 5.4 ± 2.5 h | 56.7 ± 44.2 nM | 0.203 ± 0.187 µM·h | 5.5 h | 0.1 ± 0.1 µg/mg creatinine | Tmax ([2]; after orange (hesperidin) extract): 7.3 ± 2.2 h; Cmax [2, 7]: 4.7 ± 3.6 nM; AUC(0-t) [2, 7]: 0.0188 ± 0.019 µM·h; Tmax ([2]; human, oral, 1.95 g, after orange (hesperidin) extract, read-out: Tmax): 7.5 h |
| O=C1CC(c2ccc(OC3OC(C(=O)O)C(O)C(O)C3O)c(O)c2)Oc2cc(O)cc(O)c21 (stereo not drawn) [M4, Eriodictyol glucuronide-3] | 9.4 ± 16.9 µg/mg creatinine | 75.1 ± 128 µg/mg creatinine | 33.8 ± 64.1 µg/mg creatinine | 27.7 ± 40.1 µg/mg creatinine | 4.3 ± 6.4 µg/mg creatinine | 3.4 ± 6.2 µg/mg creatinine | 0.5 ± 0.9 µg/mg creatinine | 0.7 ± 0.7 µg/mg creatinine | 2.1 ± 4.5 µg/mg creatinine | 16 | 11 | 16 | 7 | 5.9 ± 2.6 h | 639 ± 802 nM | 2.29 ± 3.49 µM·h | 6 h | 0.1 ± 0.2 µg/mg creatinine | – |
